These results are taken from patent US6846803B1, “Antagonists specific for the corticotropin-releasing factor receptor type 2 (CRFR2)” (priority 1998, dated 2005).

In assay [1] the target is T1, mCRFR2β (Mus musculus, UniProt Q60748).
T1 construct: expressed in transfected cells; host or cells: HEK 293 cells, stably transfected (HEK-mCRFR2β); membrane homogenates
The assay is described as follows: Displacement of [^125I-Tyr^0]Svg from membranes of HEK-mCRFR2β cells. The conditions noted are these: for Selectivity: Kd(rCRFR1)(peptide)/Kd(rCRFR1)(astressin) × Kd(mCRFR2β)(astressin)/Kd(mCRFR2β)(peptide). It is filed as binding. On the procedure: Binding assays were performed in 96-well MultiScreen plates (Millipore, Eschborn, Germany) with GF/B filters (pore size 1.0 μm). […] After incubation (60 min, 23° C.), membrane suspension was aspirated through the plate, followed by two washes with assay buffer (0.2 ml, 23°). Radioactivity of the punched filters was measured with a 1470 WIZARD automatic gamma counter (Berthold, Hannover). […] Statistical analysis was performed with ANOVA, and significant differences between groups were determined by post hoc comparison using the Dunn test.
Membrane homogenates of human embryonic kidney (HEK) 293 cells stably transfected with cDNA coding for rat CRF receptor, type 1 (rCRFR1) or mouse CRF receptor, type 2β (mCRFR2β) were prepared according to standard protocols (see, e.g., Sambrook et al., Molecular Cloning: A Laboratory Manual, 2nd. Edition, Cold Spring Habor Laboratory Press, Cold Spring Habor, N.Y., 1989; Ausubel et al., Current Protocols in Molecular Biology, Green Publishing Associates and Wiley Interscience, NY, 1989).

In assay [2] the target is T1, mCRFR2β. Nature of the assay: cAMP stimulation / inhibition of Svg-stimulated cAMP production in HEK-mCRFR2β cells. It is filed as cell-based. Further details: Emax: dose or concentration left out as unconfirmed. The conditions noted are these: for mCRFR2β relative in vitro potency: Table 2, Svg alone = 1.00 (lower = stronger inhibition); for mCRFR2β relative in vitro potency / HEK-mCRFR2β cells rel. pot. (relative potency): 10 nM antagonist, cAMP production stimulated by 1 nM Svg; for HEK-mCRFR2β cells rel. pot. (relative potency): Table 4, Svg alone = 1.00. How it is done: (§1) HEK-rCRFR1 cells or HEK-mCRFR2β cells were incubated with different CRF agonists in the presence or absence of 1 μM or 10 nM antagonist, or CRF antagonist (c=1 μM) alone. After removal of the medium, cells were lyzed with aqueous 6% trichloroacetic acid (5 min, 100° C.) (Rühmann, A., A. K. E. Köpke, F. M. Dautzenberg, and J. Spiess, Proc. Natl. Acad. Sci. USA 93: 10609-10613, 1996). The cell lysates were stored at −70° C. until assayed with a RIA kit (Amersham, Little Chalfont). […] Statistical significance was determined across groups with ANOVA, and significant differences between groups were determined by post hoc comparison using the Dunn test.
(§2) Intrinsic activities were measured at peptide concentrations generating maximal formation of cAMP in HEK-rCRFR1 or HEK-mCRFR2β cells.
Target sequence in this assay (Q60748 1-431 isoform Q60748-2): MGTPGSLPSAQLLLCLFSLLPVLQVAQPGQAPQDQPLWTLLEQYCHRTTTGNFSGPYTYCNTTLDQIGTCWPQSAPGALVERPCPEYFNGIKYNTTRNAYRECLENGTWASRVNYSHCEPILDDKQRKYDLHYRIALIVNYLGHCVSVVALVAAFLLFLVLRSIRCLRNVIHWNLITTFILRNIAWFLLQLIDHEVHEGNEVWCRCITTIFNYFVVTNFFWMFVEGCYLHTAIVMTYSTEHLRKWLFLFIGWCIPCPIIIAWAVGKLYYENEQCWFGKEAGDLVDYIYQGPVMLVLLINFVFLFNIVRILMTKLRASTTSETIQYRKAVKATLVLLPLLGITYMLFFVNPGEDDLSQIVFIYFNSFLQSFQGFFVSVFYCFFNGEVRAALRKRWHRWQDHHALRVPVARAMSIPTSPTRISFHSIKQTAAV

Assay [3] addresses T2, rCRFR1 (Rattus norvegicus, UniProt P35353).
T2 construct: expressed in transfected cells; host or cells: HEK 293 cells, stably transfected (HEK-rCRFR1)
T2 sequence (P35353 24-415): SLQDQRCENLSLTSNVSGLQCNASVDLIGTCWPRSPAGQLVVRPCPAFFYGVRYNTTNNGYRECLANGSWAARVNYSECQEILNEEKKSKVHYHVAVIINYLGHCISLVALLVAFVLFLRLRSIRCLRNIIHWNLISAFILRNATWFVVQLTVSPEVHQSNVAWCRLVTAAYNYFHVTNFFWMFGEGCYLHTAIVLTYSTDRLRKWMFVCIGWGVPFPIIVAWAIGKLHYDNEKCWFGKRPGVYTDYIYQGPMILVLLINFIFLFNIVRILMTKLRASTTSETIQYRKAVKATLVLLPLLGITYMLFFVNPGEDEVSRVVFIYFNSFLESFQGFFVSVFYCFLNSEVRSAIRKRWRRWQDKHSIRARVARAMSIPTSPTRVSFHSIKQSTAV
The assay is described as follows: cAMP stimulation / inhibition of oCRF-stimulated cAMP production in HEK-rCRFR1 cells. The class given is cell-based. The conditions noted are these: for rCRFR1 relative in vitro potency: Table 2, oCRF alone = 1.00 (lower = stronger inhibition); for rCRFR1 relative in vitro potency / HEK-rCRFR1 cells rel. pot. (relative potency): 1 μM antagonist, cAMP production stimulated by 1 nM oCRF; for HEK-rCRFR1 cells rel. pot. (relative potency): Table 4, oCRF alone = 1.00. On the procedure:
as §1, §2
On the technique in general: cAMP levels reflect the balance of adenylyl cyclase and phosphodiesterase activity.

[4] abbreviates: read-out: HEK-mCRFR2β cells rel. IA (relative intrinsic activity).
The mark [5] stands for this setting: read-out: HEK-rCRFR1 cells rel. IA (relative intrinsic activity).
[6] abbreviates: read-out: mCRFR2β % IA (intrinsic activity).

Read-outs that look alike come from different tables or passages of the source. Marks after values point to notes of the source that are not given here. Residues, ends and D or L forms follow the SMILES beside them. *: point of attachment. X1 = O=C(c1ccc(C2(C(F)(F)F)N=N2)cc1)*

In turn, “cyclo(29-32)[DPhe^11, Glu^29, Lys^32]rUcn(11-40) [compound 10]” registered a Selectivity in assay [1] (Table 1) of 1.48. Further, the “mCRFR2β relative in vitro potency” value in assay [2] is reported as 0.89 ± 0.01. Also, in assay [3], the “rCRFR1 relative in vitro potency” value came to 0.78 ± 0.10.

Regarding `CC[C@H](C)[C@H](NC(=O)[C@@H](NC(=O)[C@H](CC(=O)O)NC(=O)[C@H](CC(C)C)NC(=O)[C@H](CC(C)C)NC(=O)[C@H](CC(C)C)NC(=O)[C@H](CCCNC(=N)N)NC(=O)[C@H](CC(N)=O)NC(=O)[C@H](CC(N)=O)NC(=O)[C@H](C)NC(=O)[C@H](C)NC(=O)[C@H](CCC(N)=O)NC(=O)[C@H](CCC(N)=O)NC(=O)[C@H](CCCCN)NC(=O)[C@H](CCC(=O)O)NC(=O)[C@H](CCCCN)NC(=O)[C@H](CCC(=O)O)NC(=O)[C@H](CCC(N)=O)NC(=O)[C@H](CCCCN)NC(=O)[C@H](CCC(=O)O)NC(=O)[C@@H](NC(=O)[C@H](CCC(=O)O)NC(=O)[C@@H](NC(=O)[C@H](CCSC)NC(=O)[C@H](CCCCN)NC(=O)[C@H](CCCNC(=N)N)NC(=O)[C@H](CC(C)C)NC(=O)[C@H](CC(C)C)NC(=O)[C@H](Cc1c[nH]cn1)NC(=O)[C@@H](N)Cc1ccc(O)cc1)[C@@H](C)CC)[C@@H](C)CC)[C@@H](C)O)C(N)=O` [compound 18, [Tyr^11, His^12]Svg(11-40)] (H-YHLLRKMIEIEKQEKEKQQAANNRLLLDTI-NH2; N-terminus assumed), the Kd in assay [1] is 4.9 ± 1.8 nM. The compound also came in with a Selectivity in assay [1] (Table 3) of 31.64. Besides, the “HEK-mCRFR2β cells rel. pot. (relative potency)” value in assay [2] turned out to be 0.37 ± 0.05. The values for the Emax in assay [2] (setting [4]) and in assay [3] (setting [5]) were 0.8 ± 0.2% and 3 ± 1%, respectively. Moreover, the “HEK-rCRFR1 cells rel. pot. (relative potency)” value in assay [3] was 0.79 ± 0.07.

In turn, “α-helical CRF(9-41) [compound 4, reference compound]” returned a Selectivity in assay [1] (Table 1) of 6.61. The “mCRFR2β relative in vitro potency” value in assay [2] was 0.67 ± 0.02. Besides, the “rCRFR1 relative in vitro potency” value in assay [3] is 0.58 ± 0.05.

Take `CC[C@H](C)[C@H](NC(=O)[C@@H](NC(=O)[C@H](CC(=O)O)NC(=O)[C@H](CC(C)C)NC(=O)[C@H](CC(C)C)NC(=O)[C@H](CC(C)C)NC(=O)[C@H](CCCNC(=N)N)NC(=O)[C@H](CC(N)=O)NC(=O)[C@H](CC(N)=O)NC(=O)[C@H](C)NC(=O)[C@H](C)NC(=O)[C@H](CCC(N)=O)NC(=O)[C@H](CCC(N)=O)NC(=O)[C@H](CCCCN)NC(=O)[C@H](CCC(=O)O)NC(=O)[C@H](CCCCN)NC(=O)[C@H](CCC(=O)O)NC(=O)[C@H](CCC(N)=O)NC(=O)[C@H](CCCCN)NC(=O)[C@H](CCC(=O)O)NC(=O)[C@@H](NC(=O)[C@H](CCC(=O)O)NC(=O)[C@@H](NC(=O)[C@H](CCSC)NC(=O)[C@H](CCCCN)NC(=O)[C@H](CCCNC(=N)N)NC(=O)[C@H](CC(C)C)NC(=O)[C@H](CC(C)C)NC(=O)[C@H](CCC(=O)O)NC(=O)[C@H](CC(C)C)NC(=O)[C@H](CO)NC(=O)[C@H](CC(C)C)NC(=O)[C@H](CC(=O)O)NC(=O)[C@@H](NC(=O)[C@H](CO)NC(=O)[C@@H](NC(=O)[C@@H]1CCCN1C(=O)[C@@H]1CCCN1C(=O)CNC(=O)[C@@H]1CCC(=O)N1)[C@@H](C)CC)[C@@H](C)CC)[C@@H](C)CC)[C@@H](C)CC)[C@@H](C)O)C(N)=O` [compound 2, Svg, reference compound]: the Selectivity in assay [1] (Table 1) and in assay [1] (Table 3) was 0.109 each time. Moreover, in assay [2], the “mCRFR2β relative in vitro potency” value amounted to 1.00. In assay [2], the “HEK-mCRFR2β cells rel. pot. (relative potency)” value stood at 1.00. For the same compound, the Emax in assay [2] (setting [4]) and in assay [2] (setting [6]) was 100% throughout.

In turn, `CC[C@H](C)[C@H](NC(=O)[C@@H](NC(=O)[C@H](CC(=O)O)NC(=O)[C@H](CC(C)C)NC(=O)[C@H](CC(C)C)NC(=O)[C@H](CC(C)C)NC(=O)[C@H](CCCNC(=N)N)NC(=O)[C@H](CC(N)=O)NC(=O)[C@H](CC(N)=O)NC(=O)[C@H](C)NC(=O)[C@H](C)NC(=O)[C@H](CCC(N)=O)NC(=O)[C@H](CCC(N)=O)NC(=O)[C@H](CCCCN)NC(=O)[C@H](CCC(=O)O)NC(=O)[C@H](CCCCN)NC(=O)[C@H](CCC(=O)O)NC(=O)[C@H](CCC(N)=O)NC(=O)[C@H](CCCCN)NC(=O)[C@H](CCC(=O)O)NC(=O)[C@@H](NC(=O)[C@H](CCC(=O)O)NC(=O)[C@@H](NC(=O)[C@H](CCSC)NC(=O)[C@H](CCCCN)NC(=O)[C@H](CCCNC(=N)N)NC(=O)[C@H](CC(C)C)NC(=O)[C@H](CC(C)C)NC(=O)[C@H](Cc1c[nH]cn1)NC(=O)c1ccc(C2(C(F)(F)F)N=N2)cc1)[C@@H](C)CC)[C@@H](C)CC)[C@@H](C)O)C(N)=O` [compound 17, ATB-[His^12]Svg(12-40)] (X1-HLLRKMIEIEKQEKEKQQAANNRLLLDTI-NH2) registered a Kd in assay [1] of 3.1 ± 0.2 nM. Further, the Selectivity in assay [1] (Table 3) came to 32.26. In assay [2], the “HEK-mCRFR2β cells rel. pot. (relative potency)” value is on record as 0.48 ± 0.04. For the same compound, the Emax in assay [2] (setting [4]) came to 0.7 ± 0.2%; in assay [3] (setting [5]), 15 ± 1%. For the same compound, the “HEK-rCRFR1 cells rel. pot. (relative potency)” value in assay [3] is given as 0.54 ± 0.06.

“[DPhe^11, Glu^12]rUcn(11-40) [compound 8]” yielded a Selectivity in assay [1] (Table 1) of 5.04. Further, the “mCRFR2β relative in vitro potency” value in assay [2] was 0.61 ± 0.02. The “rCRFR1 relative in vitro potency” value in assay [3] came out at 0.42 ± 0.11.

As for [DPhe^12]oCRF(12-41) [compound 6], the Selectivity in assay [1] (Table 1) is 1.32. Besides, the “mCRFR2β relative in vitro potency” value in assay [2] is reported as 0.92 ± 0.07^k. Further, the “rCRFR1 relative in vitro potency” value in assay [3] stood at 0.89 ± 0.07.

“[DLeu^11, Glu^12]rUcn(11-40) [compound 9]” had a Selectivity in assay [1] (Table 1) of 2.29. Moreover, in assay [2], the “mCRFR2β relative in vitro potency” value is reported as 0.81 ± 0.06. Besides, in assay [3], the “rCRFR1 relative in vitro potency” value is 0.56 ± 0.05.

`CC[C@H](C)[C@H](NC(=O)[C@@H](NC(=O)[C@H](CC(=O)O)NC(=O)[C@H](CC(C)C)NC(=O)[C@H](CC(C)C)NC(=O)[C@H](CC(C)C)NC(=O)[C@H](CCCNC(=N)N)NC(=O)[C@H](CC(N)=O)NC(=O)[C@H](CC(N)=O)NC(=O)[C@H](C)NC(=O)[C@H](C)NC(=O)[C@H](CCC(N)=O)NC(=O)[C@H](CCC(N)=O)NC(=O)[C@H](CCCCN)NC(=O)[C@H](CCC(=O)O)NC(=O)[C@H](CCCCN)NC(=O)[C@H](CCC(=O)O)NC(=O)[C@H](CCC(N)=O)NC(=O)[C@H](CCCCN)NC(=O)[C@H](CCC(=O)O)NC(=O)[C@@H](NC(=O)[C@H](CCC(=O)O)NC(=O)[C@@H](NC(=O)[C@H](CCSC)NC(=O)[C@H](CCCCN)NC(=O)[C@H](CCCNC(=N)N)NC(=O)[C@H](CC(C)C)NC(=O)[C@H](CC(C)C)NC(=O)[C@H](Cc1c[nH]cn1)NC(=O)[C@H](N)Cc1ccccc1)[C@@H](C)CC)[C@@H](C)CC)[C@@H](C)O)C(N)=O` [compound 11, [DPhe^11, His^12]Svg(11-40)] yielded a Kd in assay [1] of 1.4 ± 0.4 nM. Moreover, the Emax in assay [2] (setting [4]) was determined as 0.4 ± 0.1%; in assay [2] (setting [6]), 0.4 ± 0.1%; in assay [3] (setting [5]) it was 4 ± 1%; in assay [3] (read-out: rCRFR1 % IA (intrinsic activity)), 4 ± 1%.

In general, Kd refers to the free concentration of one partner at which half of the binding sites on the other are occupied at equilibrium, for simple one-to-one binding.
